# According to US20040019027A1, “Method of treating cerebrotendinous xanthomatosis” (priority 2002, published 2004):
# What was measured:
# mouse PXR = biological target: T1, mouse PXR (Mus musculus, UniProt O54915); assay: GAL-mouse PXR luciferase reporter gene assay in transfected CV-1 cells; type: cell-based; settings: 10 μM; CV-1 cells; FIG. 3(a), FIG. 8(a)
# T1 sequence (O54915 104-431): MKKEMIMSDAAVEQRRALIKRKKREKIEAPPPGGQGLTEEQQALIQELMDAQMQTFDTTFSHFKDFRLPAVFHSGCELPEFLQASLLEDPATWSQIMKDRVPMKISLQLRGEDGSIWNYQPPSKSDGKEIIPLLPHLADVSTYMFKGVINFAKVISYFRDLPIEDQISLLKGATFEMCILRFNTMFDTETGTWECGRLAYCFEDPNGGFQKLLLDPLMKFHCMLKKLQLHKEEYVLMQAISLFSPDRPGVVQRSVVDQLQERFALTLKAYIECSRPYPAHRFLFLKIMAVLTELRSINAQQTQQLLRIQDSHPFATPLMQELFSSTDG
# Experimental: CV-1 cells were transiently transfected with a GAL-mouse PXR expression vector, a GAL4 reporter construct, and a β-galactosidase vector as an internal control. Where noted, the bile acid transporter NTCP was added to the transfection to promote the transport of membrane-impermeable bile acids. Transfected cells were exposed to the indicated compounds (10 μM each), and fold activation was determined using luciferase and β-galactosidase enzyme activity assays. […] The transfected CV-1 cells were treated with multiple concentrations of each sterol. Error bars in this figure and subsequent figures represent the standard error of the mean (SEM) from representative experiments.
# It is questioned whether β-cholestane-3α, 7α, 12α-triol (Triol) levels were elevated in whole liver extracts from CYP27 −/− mice. To show the level of 5β-cholestane-3α, 7α, 12α-triol in mouse liver extract, wild-type or CYP27 −/−mouse liver tissue (0.5 g) was extracted with 7.5 ml of ethyl acetate/methanol (2:1, vol/vol) along with 5β-cholestane-3β,5α,6β-triol (25 μg) as an internal control for extraction efficiency. […] The extraction was repeated three times, and the organic fraction was pooled and evaporated. To remove the vast excess of cholesterol that interferes with subsequent gas chromatography-mass spectroscopy analysis, the evaporated residue was dissolved in 0.5 ml of chloroform/acetone (35:25, vol/vol) and applied to a Bond Elut SI cartridge (Varian, 500 mg). Cholesterol was removed by washing with 6 ml of chloroform/acetone (35:25, vol/vol), and sterols were eluted with 7 ml of chloroform/acetone/methanol (35:25:20, vol/vol/vol). The sterol fraction was evaporated and dissolved in acetonitrile, and a portion was silylated with N,O-bis(trimethylsilyl)-trifluoroacetamide containing 1% trimethylchlorosilane (Pierce). The silylated material was analyzed by using a Shimadzu model GC-17A gas chromatograph with a QP5000 mass spectral detector and a Hewlett-Packard Ultra 2 (cross-linked-siloxane) column. The injector port was kept at 250° C., interface temperature was kept at 280° C., and oven temperature was kept at 50° C. followed by a gradient of 30° C. min^−1 up to 300° C. The electron impact ionization source was at 70 eV. 5β-cholestane-3α, 7α, 12α-triol levels were determined by comparison to a standard curve. For transfection studies, the sterol fraction was dissolved in DMSO and added to the cell-culture media. containing DMEM with 10% delipidated FBS.
# [1] = system: PXR target genes cyp3a11, cyp2c, and oatp2; assay: Northern analysis of PXR target genes in primary mouse hepatocytes; type: cell-based; settings: 10 μM, 24 h, FIG. 5
# Experimental: Primary mouse hepatocytes were treated with compounds (10 μM), and Northern analysis was performed using the probes as described in Example III.
# Additionally, a Northern blot analysis of PXR target genes can be used to determine whether or not a molecule or compound is a PXR agonist. […] In this approach, hepatocytes are isolated, cultured in vitro, and exposed to a molecule or compound suspected to be a PXR agonist. Total RNA of the hepatocytes is isolated and subject to Northern blot analysis with probes of PXR target genes' fragments. The PXR target genes have transcriptional regulatory regions that interact with the DNA binding domain of a PXR. When a PXR agonist interacts or binds to the ligand binding domain of a PXR, the DNA binding domain of a PXR interacts with the transcriptional regulatory region of the target genes and activates the expression of the target genes. Consequently, an enhanced expression of target genes is observed in the Northern blot analysis. Commonly used target genes' fragments include cyp3a11, nucleotides from #1,065 to #1,569 of GenBank accession no. X60452; cyp2c, nucleotides from #787 to #1,193 of GenBank accession no. AK008580; and oatp2, nucleotides 2,124-2,486 of GenBank accession no. NM_021471. gapdh, nucleotides from #590 to #1,089 of GenBank accession no. NM_008094, is used as a control since gapdh is not regulated by the activation of a PXR. […]
structure (smiles),measurement,setting,value
"CC(=O)[C@H]1[C@H](C#N)C[C@H]2[C@@H]3CC=C4C[C@@H](O)CC[C@]4(C)[C@H]3CC[C@@]21C [PCN, pregnenolone-16α-carbonitrile]",activation of GAL-mouse PXR (in words),mouse PXR,very effective agonist
same,"induction of PXR target genes cyp3a11, cyp2c, oatp2 (in words)",[1],"activated expression of the PXR target genes cyp3a11, cyp2c, and oatp2"
